{"source": "patent US20080260695A1", "about": "“Composition for prevention and/or treatment of cancer” (MICROBIO COMPANY LTD., priority 2007, published 2008)", "system": "colorectal cancer cell (HT-29)", "assay": "MTT assay, relative survival rate of colorectal cancer cell line", "assay_type": "cell-based", "settings": "HT-29, 24 hours, control 100%", "protocol": "The six components (fermented soy extract (Microbio Biotechnology®), oligomeric proanthocyanidin, epigallocatiechin gallate, spirulina, curcumin, and Antrodia camphorata) of Example 1 were classified to seven groups; the content of each group is listed in Table 2. Each group was respectively diluted 300×, 600×, 1200×, and 2400× with McCoy's 5a medium, and then colorectal cancer cell (HT-29, 80000 cell/well) line was treated with the diluted group A to group G. After 24 hours, the relative survival rates of the colorectal cancer cell line were detected by MTT assay. In a control group, the relative survival rate was 100%.", "key": {"[1]": {"settings": "300 × dilution in McCoy's 5a medium"}, "[2]": {"settings": "600 × dilution in McCoy's 5a medium"}, "[3]": {"settings": "1200 × dilution in McCoy's 5a medium"}, "[4]": {"settings": "2400 × dilution in McCoy's 5a medium"}}}
{"compound": "COc1cc(/C=C/C(=O)CC(=O)/C=C/c2ccc(O)c(OC)c2)ccc1O", "note": "[Group C, curcumin]", "values": [{"measurement": "Relatively survival rate (%)", "setting": "[1]", "result": 18, "unit": "%"}, {"measurement": "Relatively survival rate (%)", "setting": "[2]", "result": 31, "unit": "%"}, {"measurement": "Relatively survival rate (%)", "setting": "[3]", "result": 45, "unit": "%"}, {"measurement": "Relatively survival rate (%)", "setting": "[4]", "result": 71, "unit": "%"}]}
{"compound": "epigallocatiechin gallate [Group B]", "values": [{"measurement": "Relatively survival rate (%)", "setting": "[1]", "result": 23, "unit": "%"}, {"measurement": "Relatively survival rate (%)", "setting": "[2]", "result": 50, "unit": "%"}, {"measurement": "Relatively survival rate (%)", "setting": "[3]", "result": 66, "unit": "%"}, {"measurement": "Relatively survival rate (%)", "setting": "[4]", "result": 81, "unit": "%"}]}
